Source: patent publication US8834858B2, “Treatment for dyslipidemia” (Solvotrin Therapeutics Ltd., priority 2011, dated 2014)
Like-named read-outs stand apart in the source and are kept apart here.

Key:
prostaglandin D2 (PGD2) = assay: NHP crossover study: serum PGD2; type: in vivo, cynomolgus monkeys; conditions: over 24 hours post dosing, equimolar doses
Procedure: For TxB2, an additional 0.4 mL whole blood aliquots were placed in siliconised glass tubes to induce a clotting response and the supernatants were analysed for TxB2 using a Luminex ELISA immunoassay. PGD2 was analysed from serum directly using a Luminex ELISA immunoassay.

[1] = tested on: LDL cholesterol, HDL cholesterol, TG; conditions: adult dyslipidemias; cited from earlier work
[2] = cited from earlier work
[3] = crystalline nicotinic acid (>1 g), cited from earlier work
LDL, HDL = conditions: cited from earlier work
[4] = cited from earlier work; remark: listed apart in the source
[5] = 8 and 14 months, on statin therapy; cited from earlier work
[6] = secondary prevention; cited from earlier work
[7] = cited from earlier work; remark: listed apart in the source
blood glucose = conditions: cited from earlier work; for patients with diabetes requiring a change in hypoglycemic therapy: in vivo
PGD2 receptor-1 (DP1) = PGD2 receptor-1 (DP1) (Homo sapiens, UniProt Q13258); conditions: nicotinic acid without vs with added laropiprant (Kush 2009); cited from earlier work
serum glucose = assay: NHP crossover study: serum glucose
Procedure: (§1) The primary study endpoint is change in plasma LDL cholesterol and Apolipoprotein B at 48 hours. An aliquot of 300 μL of serum transferred to a cryovial and was immediately placed in a freezer set to maintain −70° C. until analyzed for clinical chemistry (LDL cholesterol, Apolipoprotein B, TGs, glucose) using a standard Roche Analyser.

[8] = tested on: LDL cholesterol, Apolipoprotein B, TGs; assay: NHP crossover study: clinical chemistry (LDL-C, ApoB, TG)
Procedure: as §1

[9] = baseline to 48 hours, 28 mg/kg niacin equivalents daily oral gavage, n=6

PGD2 receptor-1 (DP1), sequence (Q13258 whole entry): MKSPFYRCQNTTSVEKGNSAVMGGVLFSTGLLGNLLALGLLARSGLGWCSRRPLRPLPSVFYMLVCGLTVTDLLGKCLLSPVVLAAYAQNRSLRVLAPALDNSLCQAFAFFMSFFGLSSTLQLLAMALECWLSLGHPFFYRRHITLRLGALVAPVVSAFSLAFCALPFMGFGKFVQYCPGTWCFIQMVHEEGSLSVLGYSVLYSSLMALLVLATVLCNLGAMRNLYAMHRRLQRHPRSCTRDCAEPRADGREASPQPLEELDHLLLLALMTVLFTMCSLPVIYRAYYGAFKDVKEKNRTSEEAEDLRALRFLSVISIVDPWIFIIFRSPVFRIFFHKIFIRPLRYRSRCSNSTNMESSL

For `O=C(O)c1cccnc1` [nicotinic acid], the “PGD2 AUC” value (prostaglandin D2 (PGD2)) is given as 128.3 ± 38.2 ng·h/mL, the HDL cholesterol [1] is given as “+15 to +35%” and the LDL cholesterol [1] is given as −5 to −25%. For the same compound, the TG [1] was −20 to −50%, the “reduction of incidence of non-fatal re-infarction / risk of myocardial infarction” value ([2]; five year follow up, men with history of MI) was 27% and the “decrease in all-cause (long-term) mortality” value ([2]; mean follow-up of 15 years) was 11%. The half life ([3]; oral) was “about 60 minutes”, the “time to peak plasma concentrations” value ([3]; oral) was 30 to 60 min and the oral absorption [3] was “almost completely absorbed”. The “additional lowering of LDL levels” value (LDL, HDL; 1 g/day added to stable statin) was 8%, the “additional raise of HDL levels” value (LDL, HDL; 1 g/day added to stable statin) was 24% and the “additional lowering of LDL” value (LDL, HDL; 2 g/day added to stable statin) was 20%. The “additional raise of HDL cholesterol levels” value (LDL, HDL; 2 g/day added to stable statin) was 27%, the HDL increase ([4]; 1,000 mg once daily added to simvastatin) was 21% and the “carotid intima-media thickness (CIMT)” value ([4]; after 12 months) was “unchanged”. For the same compound, the CIMT [5] was “significant reduction”, the “coronary artery revascularization, non-fatal MI, stroke and TIA” value [6] was “significant reduction” and the “patients discontinuing treatment because of flushing” value ([7]; Jacobson 2010) was 5-20%. For the same compound, the “users experiencing mild or moderate flushing” value ([7]; review of clinical trials) was > 60%, the “increase in fingerstick glucose levels” value (blood glucose; doses <2.5 g) was 4% to 5 and the “patients with diabetes requiring a change in hypoglycemic therapy” value (blood glucose) was 10-35%. For the same compound, the “patients with diabetes requiring a change in hypoglycemic therapy” value (blood glucose; listed as Nicotinic acid) was 10% to 35, the “rate of moderate/severe flushing” value (PGD2 receptor-1 (DP1)) was 50% and the “serum glucose change from baseline” value (serum glucose; 1 hour post dose) was “significant decrease”. The “serum glucose after feeding” value (serum glucose; following animal feeding between 1-2 hours post dose) was “rebound to baseline levels”, the “TG levels at 48 hours (follow up)” value ([8]; 48 hours) was 64 ± 31 mg/dL and the “TG levels at baseline” value ([8]; baseline) was 50 ± 10 mg/dL. For the same compound, the “increase in TG levels (non-significant)” value ([8]; baseline to 48 hours) was 23.3%, the “reduction from baseline in LDL cholesterol” value [8, 9] was 33% and the “reduction from baseline in apolipoprotein B” value [8, 9] was 24%.
